24 compounds from US20250340563A1, “FUSED PYRIDAZINE DERIVATIVES AS NLRP3 INHIBITORS” (Takeda Pharmaceutical Company Limited, priority 2022, published 2025) can be followed below.

One assay has as its target NLRP3 inflammasome (Homo sapiens, UniProt Q96P20). The experiment in a line: IL-1β assay in IFN-γ-differentiated, LPS-primed, ATP-activated THP-1 cells (ELISA). It is filed as cell-based. The settings on record: 50 ng/mL LPS priming, 2.5 mM ATP activation, 2 hours. A digest of the protocol:
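THP-1 cells differentiated with 25 ng/mL IFN-γ for 24 h, then primed with 50 ng/mL LPS for 24 h in serum-free medium. After 30 min compound preincubation (1:3.16 dilution series), inflammasome activated with 2.5 mM ATP for 2 h at 37 °C. Supernatant IL-1β measured by ELISA; IC50 from logistic fit of % inhibition.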
(In general: An ELISA detects its analyte on a solid surface through an enzyme-linked reagent.)

In the next assay the test system is NF-κB pathway. The experiment in a line: TNF-α assay in IFN-γ-differentiated, LPS-stimulated THP-1 cells (ELISA). It is filed as cell-based. Conditions: Homo sapiens, 50 ng/mL LPS, 3 hours. A digest of the protocol: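 THP-1 cells differentiated with 25 ng/mL IFN-γ for 24 h, then preincubated 30 min at 37 °C with compound (1:3.16 serial dilutions) in serum-free medium. Stimulated with 50 ng/mL LPS for 3 h; supernatant assayed by human TNF-α ELISA. IC50 from four-parameter logistic fit of % inhibition.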

pIC50: −log10 of the molar value.

Chain of NLRP3 inflammasome (Q96P20 whole entry): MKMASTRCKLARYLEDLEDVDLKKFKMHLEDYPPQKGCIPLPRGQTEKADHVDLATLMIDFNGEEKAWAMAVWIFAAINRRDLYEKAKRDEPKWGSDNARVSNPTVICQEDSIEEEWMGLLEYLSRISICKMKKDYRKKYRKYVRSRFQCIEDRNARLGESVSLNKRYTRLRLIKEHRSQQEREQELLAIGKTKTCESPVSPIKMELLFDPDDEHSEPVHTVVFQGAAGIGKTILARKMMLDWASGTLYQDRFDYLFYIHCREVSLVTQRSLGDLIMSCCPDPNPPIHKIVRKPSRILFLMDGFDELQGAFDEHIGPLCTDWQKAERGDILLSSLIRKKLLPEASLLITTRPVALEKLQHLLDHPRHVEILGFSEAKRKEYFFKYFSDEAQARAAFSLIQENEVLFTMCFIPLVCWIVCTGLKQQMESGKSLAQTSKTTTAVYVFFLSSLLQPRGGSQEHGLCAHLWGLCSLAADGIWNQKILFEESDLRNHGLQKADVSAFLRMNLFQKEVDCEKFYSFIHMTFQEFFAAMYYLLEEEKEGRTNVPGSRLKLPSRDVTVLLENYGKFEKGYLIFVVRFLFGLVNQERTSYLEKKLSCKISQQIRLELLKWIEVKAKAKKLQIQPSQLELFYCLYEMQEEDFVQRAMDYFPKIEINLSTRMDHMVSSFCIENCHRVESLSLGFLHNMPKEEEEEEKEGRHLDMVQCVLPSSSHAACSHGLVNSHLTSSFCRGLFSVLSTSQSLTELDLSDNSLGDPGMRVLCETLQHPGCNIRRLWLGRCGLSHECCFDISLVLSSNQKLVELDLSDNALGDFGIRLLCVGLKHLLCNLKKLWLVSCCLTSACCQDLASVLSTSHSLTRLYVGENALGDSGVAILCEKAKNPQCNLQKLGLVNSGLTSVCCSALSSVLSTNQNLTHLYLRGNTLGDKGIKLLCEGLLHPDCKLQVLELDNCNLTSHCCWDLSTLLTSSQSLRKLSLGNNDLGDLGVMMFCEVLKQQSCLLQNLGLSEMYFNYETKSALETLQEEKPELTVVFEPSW

Broadly, the pIC50 is the negative decadic logarithm of the IC50, by convention in mol/L. Read a high pIC50 as a small IC50. Regarding `COc1ccc(-c2nnc(N[C@@H]3C[C@@H](F)CN(C)C3)c3c2CCOC3)c(C(F)F)c1` [Example 206, 1-(2-(difluoromethyl)-4-methoxyphenyl)-N-((3R,5R)-5-fluoro-1-methylpiperidin-3-yl)-7,8-dihydro-5H-pyrano[3,4-d]pyridazin-4-amine], the figures for the pIC50 against NLRP3 inflammasome and in the assay with NF-κB pathway were 6.37 and less than 4.52, respectively.
On to `COc1ccc(-c2nnc(N[C@H]3C[C@@](C)(O)C3)c3ccccc23)cc1` [Example 124, cis-3-((4-(4-methoxyphenyl)phthalazin-1-yl)amino)-1-methylcyclobutan-1-ol], for which the pIC50 against NLRP3 inflammasome is 5.89; with NF-κB pathway, less than 4.52.
The like results for `CN1CCC[C@@H](Nc2nnc(-c3ccc(Cl)cc3)c3ccncc23)C1` [Example 64, (R)-1-(4-chlorophenyl)-N-(1-methylpiperidin-3-yl)pyrido[3,4-d]pyridazin-4-amine] were, in that order, 7.24 and less than 4.52.
The like results for `COc1ccc(-c2nnc(NC3CCCN(C)C3)c3ccncc23)cc1` (stereo not drawn) [Example 73, 4-(4-methoxyphenyl)-N-(1-methylpiperidin-3-yl)pyrido[3,4-d]pyridazin-1-amine] were, in that order, 6.57 and less than 4.52.
In the case of `CN1CCCC(Nc2nnc(-c3ccc(C4CC4)cc3)c3ccccc23)C1` (stereo not drawn) [Example 16, 4-(4-cyclopropylphenyl)-N-(1-methylpiperidin-3-yl)phthalazin-1-amine], the negative-log IC50 (pIC50) on NLRP3 inflammasome was 6.95; in the assay on NF-κB pathway it was less than 4.52.
Regarding `CN1CCC[C@@H](Nc2nnc(-c3ccc(F)cc3O)c3ccncc23)C1` [Example 93, (R)-5-fluoro-2-(4-((1-methylpiperidin-3-yl)amino)pyrido[3,4-d]pyridazin-1-yl)phenol], the pIC50 against NLRP3 inflammasome is 7.52; with NF-κB pathway, less than 4.52.
The like results for `Cc1ccc(-c2nnc(NC34CCC(O)(CC3)C4)c3c2COCC3)c(O)c1` [Example 232, 4-((4-(2-hydroxy-4-methylphenyl)-7,8-dihydro-5H-pyrano[3,4-d]pyridazin-1-yl)amino)bicyclo[2.2.1]heptan-1-ol] were, in that order, 6.81 and less than 4.52.
The like results for `Cc1cc2c(-c3ccc(Cl)cc3)nnc(NC3CCCN(C)C3)c2cn1` (stereo not drawn) [Example 80, 1-(4-chlorophenyl)-7-methyl-N-(1-methylpiperidin-3-yl)pyrido[3,4-d]pyridazin-4-amine] were, in that order, 7.44 and less than 4.52.
As to `COc1ccc(-c2nnc(Nc3ccccc3O)c3ccccc23)cc1` [Example 39, 2-((4-(4-methoxyphenyl)phthalazin-1-yl)amino)phenol], the pIC50 against NLRP3 inflammasome was 5.79; in the assay on NF-κB pathway it was less than 4.52.
Regarding `COc1ccc(-c2nnc(N[C@@H]3C[C@@H](F)CN(C)C3)c3c2COCC3)c(C(F)(F)F)c1` [Example 210, N-((3R,5R)-5-fluoro-1-methylpiperidin-3-yl)-4-(4-methoxy-2-(trifluoromethyl)phenyl)-7,8-dihydro-5H-pyrano[3,4-d]pyridazin-1-amine], the pIC50 against NLRP3 inflammasome was 6.12; with NF-κB pathway, less than 4.52.
The like results for `CN1C[C@H](F)C[C@@H](Nc2nnc(-c3ccc(Cl)cc3F)c3ccccc23)C1` [Example 176, 4-(4-chloro-2-fluorophenyl)-N-((3R,5R)-5-fluoro-1-methylpiperidin-3-yl)phthalazin-1-amine] were, in that order, 7.43 and less than 4.52.
The corresponding values for `Cc1ccc(-c2nnc(N[C@@H]3C[C@@H](F)CN(C)C3)c3cnccc23)c(O)c1` (relative stereo) [Example 173, 2-(4-((trans-5-fluoro-1-methylpiperidin-3-yl)amino)pyrido[3,4-d]pyridazin-1-yl)-5-methylphenol] are 8.52 and less than 4.52.
The like results for `CN1CCCC(Nc2nnc(-c3ccc(Cl)c(F)c3)c3ccccc23)C1` (stereo not drawn) [Example 44, 4-(4-chloro-3-fluorophenyl)-N-(1-methylpiperidin-3-yl)phthalazin-1-amine] were, in that order, 7.01 and less than 4.52.
`CN1CCC[C@@H](Nc2nnc(-c3ccc(Cl)cc3O)c3c2CCOC3)C1` [Example 224, (R)-5-chloro-2-(1-((1-methylpiperidin-3-yl)amino)-7,8-dihydro-5H-pyrano[3,4-d]pyridazin-4-yl)phenol]: the pIC50 on NLRP3 inflammasome was 8.70; in the assay with NF-κB pathway it was less than 4.52.
The corresponding values for `CN1C[C@H](F)C[C@@H](Nc2nnc(-c3ccc(Cl)cc3)c3ccccc23)C1` [Example 192, 4-(4-chlorophenyl)-N-((3R,5R)-5-fluoro-1-methylpiperidin-3-yl)phthalazin-1-amine] are 7.22 and less than 4.52.
The like results for `COc1ccc(-c2nnc(Nc3cccc(O)c3)c3ccccc23)cc1` [Example 1, 3-((4-(4-methoxyphenyl)phthalazin-1-yl)amino)phenol] were, in that order, 5.73 and 5.14.
The like results for `COc1ccc(-c2nnc(N[C@@H]3C[C@@H](F)CN(C)C3)c3c2COCC3)c(C(F)F)c1` [Example 208, 4-(2-(difluoromethyl)-4-methoxyphenyl)-N-((3R,5R)-5-fluoro-1-methylpiperidin-3-yl)-7,8-dihydro-5H-pyrano[3,4-d]pyridazin-1-amine] were, in that order, 6.07 and less than 4.52.
Turning to `COc1cc2c(NC3CCCN(C)C3)nnc(-c3ccc(Cl)cc3)c2cn1` (stereo not drawn) [Example 82, 4-(4-chlorophenyl)-7-methoxy-N-(1-methylpiperidin-3-yl)pyrido[3,4-d]pyridazin-1-amine], the pIC50 against NLRP3 inflammasome is 7.02; in the assay on NF-κB pathway it was less than 5.00.
As to `COc1ccc(-c2nnc(N[C@@H]3C[C@@H](F)CN(C)C3)c3c2CCOC3)c(C(F)(F)F)c1` [Example 216, N-((3R,5R)-5-fluoro-1-methylpiperidin-3-yl)-1-(4-methoxy-2-(trifluoromethyl)phenyl)-7,8-dihydro-5H-pyrano[3,4-d]pyridazin-4-amine], the pIC50 on NLRP3 inflammasome is 6.43; with NF-κB pathway, less than 4.52.
The like results for `OC12CCC(Nc3nnc(-c4ccc(Cl)cc4)c4ccccc34)(CC1)C2` [Example 127, 4-((4-(4-chlorophenyl)phthalazin-1-yl)amino)bicyclo[2.2.1]heptan-1-ol] were, in that order, 6.64 and less than 4.52.
The like results for `CN1CCC[C@@H](Nc2nnc(-c3ccc(Cl)cc3)c3ccccc23)C1` [Example 139, (R)-4-(4-chlorophenyl)-N-(1-methylpiperidin-3-yl)phthalazin-1-amine] were, in that order, 7.51 and less than 4.52.
As for `COc1ccc(-c2nnc(N[C@@H]3CCCN(C)C3)c3cnccc23)c(O)c1` [Example 36, (R)-5-methoxy-2-(4-((1-methylpiperidin-3-yl)amino)pyrido[3,4-d]pyridazin-1-yl)phenol], the pIC50 at NLRP3 inflammasome is 8.00; in the assay on NF-κB pathway, less than 4.52.
The corresponding values for `Clc1ccc(-c2nnc(NC3CCCN(C4CC4)C3)c3ccncc23)cc1` (stereo not drawn) [Example 89, 4-(4-chlorophenyl)-N-(1-cyclopropylpiperidin-3-yl)pyrido[3,4-d]pyridazin-1-amine] are 7.04 and less than 4.52.
For `Cc1ccc(-c2nnc(N[C@@H]3C[C@@H](F)CN(C)C3)c3c(C)nccc23)c(O)c1` [Example 186, 2-(4-(((3R,5R)-5-fluoro-1-methylpiperidin-3-yl)amino)-5-methylpyrido[3,4-d]pyridazin-1-yl)-5-methylphenol], the pIC50 on NLRP3 inflammasome is 8.30; with NF-κB pathway it was less than 4.52.
